The text below walks through data of patent publication US8119695B2, “Compounds and methods for treating breast cancer and other diseases” (City of Hope, priority 2003, dated 2012).

Assay type in all cases: cell-based
In assay [1] the test system is ERRα (GAL-ERRa). Kind of assay: MH100x4 luciferase reporter with GAL-ERRa. More on the design: Reporter Activity: unit not given here. The text has this:
(§1) MH100x4 is a luciferase reporter with four copies of a GAL4 […] response element. GAL-L refers to the ligand-binding domain of the indicated receptor fused to the C-terminus of the GAL4 DNA binding domain.
In general terms: Reporter assays use an easily measured gene product as a stand-in for the process of interest.

Assay [2] deals with T1, ERRβ (GAL-L-ERRb) (Homo sapiens, UniProt O95718).
T1 construct: expressed in transfected cells
T1 sequence (O95718 208-432 limits assumed): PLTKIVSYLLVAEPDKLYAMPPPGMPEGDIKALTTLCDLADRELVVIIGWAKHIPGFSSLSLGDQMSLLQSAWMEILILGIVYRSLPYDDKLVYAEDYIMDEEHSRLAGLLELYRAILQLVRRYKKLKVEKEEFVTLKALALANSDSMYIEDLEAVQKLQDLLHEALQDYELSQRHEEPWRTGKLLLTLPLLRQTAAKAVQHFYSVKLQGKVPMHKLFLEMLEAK
The experiment in a line: MH100x4 luciferase reporter with GAL-L-ERRb. To be noted: for inhibition of the activity of ERRβ: result in words. Details: Reporter Activity: unit not given here.
Source text: as §1

For assay [3], the system named is ERRγ (GAL-ERRg). The experiment in a line: MH100x4 luciferase reporter with GAL-ERRg. The settings on record: for inhibition of the activity of ERRγ: result in words. Details: Reporter Activity: unit not given here.
Source text: as §1

For assay [4], the system named is MH100x4. Kind of assay: MH100x4 luciferase reporter without receptor. To be noted: Table 2, dose 5 (unit not given); for Reporter Activity: None 0.49; for Fold Activation: None 1.00.
Source text: as §1

The mark [5] stands for this setting: Table 3, dose 2.5 (unit not given), None 1.
Setting [6] is: Table 3, dose 2.5 (unit not given), None 8.18.
Where [7] appears, read: Table 3, dose 2.5 (unit not given), None 2.38.
Where [8] appears, read: Table 3, dose 2.5 (unit not given), None 2.2.
[9] abbreviates: Table 2, dose 5 (unit not given), None 1.00.
Where [10] appears, read: Table 2, dose 5 (unit not given), None 8.54.
The mark [11] stands for this setting: Table 2, dose 5 (unit not given), None 1.44.
Where [12] appears, read: Table 2, dose 5 (unit not given), None 1.25.

`CC(C)/C(=C(\c1ccc(O)cc1)c1ccc(OCN(C)C)cc1)c1ccccc1` [DY35, (Z)-4-[1-(4-Dimethylaminomethoxy-phenyl)-3-methyl-2-phenyl-but-1-enyl]-phenol]: the “Fold Activation” value in assay [1] (setting [5]) turned out to be 0.78; in assay [2] (setting [5]) it was 0.14; in assay [3] (setting [5]), 0.15. Also, the “Reporter Activity” value in assay [1] (setting [6]) was 6.38; in assay [2] (setting [7]) it was 0.34; in assay [3] (setting [8]), 0.34. Further, in assay [2], the “inhibition of the activity of ERRβ” value is listed as “inhibit the activity”. Besides, the “inhibition of the activity of ERRγ” value in assay [3] is given as “inhibit the activity”.
In the case of `CC/C(=C(/c1ccc(OCCN(C)C)cc1)c1ccc(OC(C)=O)cc1)c1ccccc1` [DY28, (E,Z)-4-{1-[4-(2-dimethylamino-ethoxy)-phenyl]-2-phenyl-but-1-enyl}-phenyl acetate], the “Fold Activation” value in assay [1] (setting [5]) is on record as 0.99; in assay [2] (setting [5]), 0.08; in assay [3] (setting [5]) it was 0.11. The “Reporter Activity” value was determined as 8.08 in assay [1] (setting [6]), 0.2 in assay [2] (setting [7]) and 0.25 in assay [3] (setting [8]). Further, the “inhibition of the activity of ERRβ” value in assay [2] is listed as “inhibit the activity”. In addition, in assay [3], the “inhibition of the activity of ERRγ” value is reported as “inhibit the activity”.
Take `CCC(=C(CC)c1ccc(O)c(C(C)C)c1)c1ccc(O)cc1` [DY17]: the “Reporter Activity” value was 0.39 in assay [4], 5.18 in assay [1] (setting [10]), 0.76 in assay [2] (setting [11]) and 0.91 in assay [3] (setting [12]). Besides, the “Fold Activation” value was 0.80 in assay [4], 0.61 in assay [1] (setting [9]), 0.53 in assay [2] (setting [9]) and 0.73 in assay [3] (setting [9]).
`CCC(=C(CC)c1ccc(O)c(C(C)(C)C)c1)c1ccc(O)cc1` [DY18]: the “Reporter Activity” value in assay [4] is on record as 0.26; in assay [1] (setting [10]), 3.39; in assay [2] (setting [11]), 0.6; in assay [3] (setting [12]), 0.73. Further, the “Fold Activation” value is on record as 0.53 in assay [4], 0.40 in assay [1] (setting [9]), 0.42 in assay [2] (setting [9]) and 0.58 in assay [3] (setting [9]).
In the case of `C=CCOc1ccc(C(CC)=C(CC)c2ccc(OCC=C)cc2)cc1` [DY20], the “Reporter Activity” value was found to be 0.35 in assay [4], 6.39 in assay [1] (setting [10]), 1.01 in assay [2] (setting [11]) and 1.01 in assay [3] (setting [12]). The “Fold Activation” value in assay [4] worked out at 0.71; in assay [1] (setting [9]) it was 0.75; in assay [2] (setting [9]), 0.70; in assay [3] (setting [9]), 0.81.
In the case of `C=CCOc1ccc(C(CC)=C(CC)c2ccc(O)c(CC=C)c2)cc1` [DY21], the “Reporter Activity” value in assay [4] is given as 0.31; in assay [1] (setting [10]), 4.34; in assay [2] (setting [11]), 0.65; in assay [3] (setting [12]) it was 0.71. The “Fold Activation” value in assay [4] came to 0.63; in assay [1] (setting [9]) it was 0.51; in assay [2] (setting [9]), 0.45; in assay [3] (setting [9]), 0.57.
For `CN(C)CCOc1ccc(/C(=C(/CCCl)c2ccccc2)c2ccc(O)cc2)cc1` [DY33], the “Reporter Activity” value in assay [3] (setting [8]) is listed as 0.58.
`CCCCCCCCCCCCOc1ccc(C(CC)=C(CC)c2ccc(OCCCCCCCCCCCC)cc2)cc1` [DY15]: the “Reporter Activity” value came out at 0.4 in assay [4], 7.06 in assay [1] (setting [10]), 1 in assay [2] (setting [11]) and 1.11 in assay [3] (setting [12]). Further, the “Fold Activation” value in assay [4] is given as 0.82; in assay [1] (setting [9]) it was 0.83; in assay [2] (setting [9]) it was 0.69; in assay [3] (setting [9]), 0.89.
In the case of `CCCCCCCCCCCCOc1ccc(/C(CC)=C(\CC)c2ccc(O)cc2)cc1` [DY14], the “Fold Activation” value was 1.01 in assay [1] (setting [9]), 0.96 in assay [2] (setting [9]) and 1.10 in assay [3] (setting [9]). Besides, the “Reporter Activity” value in assay [1] (setting [10]) is 8.63; in assay [2] (setting [11]) it was 1.38; in assay [3] (setting [12]) it was 1.38.
For the compound `CCC(=C(c1ccc(OC2CCCCO2)cc1)c1ccc(OC2CCCCO2)cc1)c1ccccc1` (stereo not drawn) [DY26], the “Fold Activation” value amounted to 1.15 in assay [1] (setting [5]), 1.01 in assay [2] (setting [5]) and 0.99 in assay [3] (setting [5]). For the same compound, the “Reporter Activity” value in assay [1] (setting [6]) is reported as 9.38; in assay [2] (setting [7]) it was 2.4; in assay [3] (setting [8]), 2.17.
